Active and inactive are the calls of the source. The calls are words filed in the database; no cut-off is given here.
How the values were obtained:
[1] = target: Protein kinase C gamma type (Homo sapiens) (UniProt P05129); experiment: Percentage activity of human PKC gamma in the presence of 10 uM of compound and 10 uM of ATP in comparison with control
[2] = target: Mitogen-activated protein kinase 1 (Homo sapiens) (UniProt P28482); experiment: Percentage activity of human MAPK2 in the presence of 10 uM of compound and 10 uM of ATP in comparison with control
Mitogen-activated protein kinase 1 (Homo sapiens), sequence (P28482 whole entry): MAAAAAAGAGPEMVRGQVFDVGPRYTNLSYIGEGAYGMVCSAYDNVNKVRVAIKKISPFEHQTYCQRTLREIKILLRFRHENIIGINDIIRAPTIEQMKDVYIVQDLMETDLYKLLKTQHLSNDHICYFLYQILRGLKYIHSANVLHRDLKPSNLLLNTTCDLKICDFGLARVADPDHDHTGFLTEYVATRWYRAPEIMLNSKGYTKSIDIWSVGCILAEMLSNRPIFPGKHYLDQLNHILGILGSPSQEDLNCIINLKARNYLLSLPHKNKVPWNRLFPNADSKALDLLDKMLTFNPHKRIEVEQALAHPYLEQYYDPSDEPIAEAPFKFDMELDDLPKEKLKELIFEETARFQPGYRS

[3] = target: Cyclin-dependent kinase 7/ cyclin H (Homo sapiens) (UniProt P51946+P50613); experiment: Percentage activity of human CDK7 with cyclin H/MAT1) in the presence of 10 uM of compound and 10 uM of ATP in comparison with control; assay type: protein-complex assay
[4] = target: Protein kinase C theta type (Homo sapiens) (UniProt Q04759); experiment: Percentage activity of human PKC theta in the presence of 10 uM of compound and 10 uM of ATP in comparison with control
[5] = target: Mitogen-activated protein kinase 13 (Homo sapiens) (UniProt O15264); experiment: Percentage activity of human SAPK4 in the presence of 10 uM of compound and 10 uM of ATP in comparison with control
[6] = target: Aurora kinase A (Homo sapiens) (UniProt O14965); experiment: Percentage activity of human Aurora-A in the presence of 10 uM of compound and 10 uM of ATP in comparison with control
[7] = target: RAC-alpha serine/threonine-protein kinase (Homo sapiens) (UniProt P31749); experiment: Percentage activity of human PKB alpha in the presence of 10 uM of compound and 10 uM of ATP in comparison with control
RAC-alpha serine/threonine-protein kinase (Homo sapiens), sequence (P31749 whole entry): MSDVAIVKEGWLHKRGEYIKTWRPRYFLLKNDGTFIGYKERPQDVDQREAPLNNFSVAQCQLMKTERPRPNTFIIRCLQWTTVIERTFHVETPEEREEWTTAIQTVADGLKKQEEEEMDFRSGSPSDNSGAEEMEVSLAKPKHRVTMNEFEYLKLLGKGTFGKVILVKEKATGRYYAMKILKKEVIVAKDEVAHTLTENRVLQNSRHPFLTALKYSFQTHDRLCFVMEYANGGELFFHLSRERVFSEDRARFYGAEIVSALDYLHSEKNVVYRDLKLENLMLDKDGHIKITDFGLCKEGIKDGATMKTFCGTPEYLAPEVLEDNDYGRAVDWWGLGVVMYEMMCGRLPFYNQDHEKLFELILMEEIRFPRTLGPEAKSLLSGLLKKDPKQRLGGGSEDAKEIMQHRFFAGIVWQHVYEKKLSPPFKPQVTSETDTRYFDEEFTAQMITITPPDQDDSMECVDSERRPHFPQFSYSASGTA

[8] = target: Inhibitor of nuclear factor kappa-B kinase subunit alpha (Homo sapiens) (UniProt O15111); experiment: Percentage activity of human IKK alpha in the presence of 10 uM of compound and 10 uM of ATP in comparison with control
[9] = target: Protein kinase C delta type (Homo sapiens) (UniProt Q05655); experiment: Percentage activity of human PKC delta in the presence of 10 uM of compound and 10 uM of ATP in comparison with control
[10] = target: Tyrosine-protein kinase Lyn (Homo sapiens) (UniProt P07948); experiment: Percentage activity of human Lyn in the presence of 10 uM of compound and 10 uM of ATP in comparison with control
Tyrosine-protein kinase Lyn (Homo sapiens), sequence (P07948 2-512 limits assumed): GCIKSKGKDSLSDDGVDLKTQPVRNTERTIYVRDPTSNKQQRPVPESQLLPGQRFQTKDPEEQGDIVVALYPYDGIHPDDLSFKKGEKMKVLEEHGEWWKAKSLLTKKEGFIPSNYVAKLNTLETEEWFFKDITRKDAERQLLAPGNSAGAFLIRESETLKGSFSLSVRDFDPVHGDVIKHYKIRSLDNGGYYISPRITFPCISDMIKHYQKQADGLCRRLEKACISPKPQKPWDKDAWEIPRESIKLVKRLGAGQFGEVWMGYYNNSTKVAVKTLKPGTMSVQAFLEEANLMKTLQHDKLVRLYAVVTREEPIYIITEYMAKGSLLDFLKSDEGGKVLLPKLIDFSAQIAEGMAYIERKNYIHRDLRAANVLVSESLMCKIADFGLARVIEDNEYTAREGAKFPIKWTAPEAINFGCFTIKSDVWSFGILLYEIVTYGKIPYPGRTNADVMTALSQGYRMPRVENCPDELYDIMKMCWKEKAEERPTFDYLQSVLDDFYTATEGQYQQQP

[11] = target: Tyrosine-protein kinase ZAP-70 (Homo sapiens) (UniProt P43403); experiment: Percentage activity of human ZAP-70 in the presence of 10 uM of compound and 10 uM of ATP in comparison with control
Tyrosine-protein kinase ZAP-70 (Homo sapiens), sequence (P43403 whole entry): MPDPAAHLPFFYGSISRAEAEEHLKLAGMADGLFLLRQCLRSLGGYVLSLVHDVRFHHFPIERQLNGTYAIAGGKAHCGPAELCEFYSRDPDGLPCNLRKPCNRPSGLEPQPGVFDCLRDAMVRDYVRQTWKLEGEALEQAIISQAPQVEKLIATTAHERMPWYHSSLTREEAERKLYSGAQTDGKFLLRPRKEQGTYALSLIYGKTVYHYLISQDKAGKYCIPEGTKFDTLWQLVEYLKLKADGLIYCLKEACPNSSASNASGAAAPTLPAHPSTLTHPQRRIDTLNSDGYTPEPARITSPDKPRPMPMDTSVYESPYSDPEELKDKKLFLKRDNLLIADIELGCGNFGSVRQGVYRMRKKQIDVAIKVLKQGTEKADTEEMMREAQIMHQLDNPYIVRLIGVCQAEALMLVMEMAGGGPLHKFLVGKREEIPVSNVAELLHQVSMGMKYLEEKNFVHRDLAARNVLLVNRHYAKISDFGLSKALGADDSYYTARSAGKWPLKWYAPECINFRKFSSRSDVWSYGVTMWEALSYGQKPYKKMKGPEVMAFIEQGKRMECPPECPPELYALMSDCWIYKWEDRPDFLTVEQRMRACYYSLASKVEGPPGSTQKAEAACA

[12] = target: Cyclin-dependent kinase 2/cyclin A (Homo sapiens) (UniProt P24941+P20248+P78396); experiment: Percentage activity of human CDK2 (with cyclin A) in the presence of 10 uM of compound and 10 uM of ATP in comparison with control; assay type: protein-complex assay
[13] = system: SCG; experiment: Cell activity of JNK inhibitors in neuronal apoptosis assay in SCG cells, percentage rescued neurons at 1 uM compound concentration after 24 hours; assay type: functional, cell-based; settings: Rattus norvegicus
[14] = target: Calcium/calmodulin-dependent protein kinase type IV (Homo sapiens) (UniProt Q16566); experiment: Percentage activity of human CaMKiV in the presence of 10 uM of compound and 10 uM of ATP in comparison with control
Calcium/calmodulin-dependent protein kinase type IV (Homo sapiens), sequence (Q16566 whole entry): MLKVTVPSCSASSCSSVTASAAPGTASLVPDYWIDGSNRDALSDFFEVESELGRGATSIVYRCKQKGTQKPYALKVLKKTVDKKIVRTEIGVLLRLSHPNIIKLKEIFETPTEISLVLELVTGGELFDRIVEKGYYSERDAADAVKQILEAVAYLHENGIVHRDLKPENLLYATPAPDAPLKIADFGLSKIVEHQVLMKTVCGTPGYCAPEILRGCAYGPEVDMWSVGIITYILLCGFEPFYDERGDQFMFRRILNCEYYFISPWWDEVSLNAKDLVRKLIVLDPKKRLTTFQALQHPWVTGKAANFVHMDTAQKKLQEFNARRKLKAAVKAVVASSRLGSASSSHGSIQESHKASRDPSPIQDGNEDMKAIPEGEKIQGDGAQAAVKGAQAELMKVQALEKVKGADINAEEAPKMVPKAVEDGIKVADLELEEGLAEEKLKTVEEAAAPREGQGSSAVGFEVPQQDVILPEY

[15] = target: Cyclin-dependent kinase 2/cyclin E (Homo sapiens) (UniProt P24864+P24941+O96020); experiment: Percentage activity of human CDK2 (with cyclin E) in the presence of 10 uM of compound and 10 uM of ATP in comparison with control; assay type: protein-complex assay
[16] = target: Inhibitor of nuclear factor kappa-B kinase subunit beta (Homo sapiens) (UniProt O14920); experiment: Percentage activity of human IKK beta in the presence of 10uM of compound and 10uM of ATP in comparison with control
Inhibitor of nuclear factor kappa-B kinase subunit beta (Homo sapiens), sequence (O14920 whole entry): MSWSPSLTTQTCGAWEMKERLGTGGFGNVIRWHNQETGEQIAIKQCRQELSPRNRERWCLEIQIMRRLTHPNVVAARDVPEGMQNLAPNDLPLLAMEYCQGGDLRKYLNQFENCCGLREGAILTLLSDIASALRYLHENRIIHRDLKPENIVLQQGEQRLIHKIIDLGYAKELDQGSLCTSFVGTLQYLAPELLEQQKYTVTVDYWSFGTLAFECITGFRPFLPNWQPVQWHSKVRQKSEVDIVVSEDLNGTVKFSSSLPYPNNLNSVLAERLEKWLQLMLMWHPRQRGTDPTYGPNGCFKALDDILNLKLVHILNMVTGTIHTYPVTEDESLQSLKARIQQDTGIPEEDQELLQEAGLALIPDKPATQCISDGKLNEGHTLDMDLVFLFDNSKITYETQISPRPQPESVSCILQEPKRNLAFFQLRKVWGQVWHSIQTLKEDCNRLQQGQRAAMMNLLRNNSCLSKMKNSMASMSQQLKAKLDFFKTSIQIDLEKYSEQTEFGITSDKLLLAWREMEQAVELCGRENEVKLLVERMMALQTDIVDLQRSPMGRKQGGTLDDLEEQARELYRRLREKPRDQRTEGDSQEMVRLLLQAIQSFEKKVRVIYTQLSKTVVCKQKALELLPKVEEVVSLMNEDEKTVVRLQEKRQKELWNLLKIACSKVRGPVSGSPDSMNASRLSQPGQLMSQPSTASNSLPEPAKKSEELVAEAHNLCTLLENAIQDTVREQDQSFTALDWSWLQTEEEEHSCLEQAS

[17] = target: CDK3/cyclin E (Homo sapiens) (UniProt P24864+O96020+Q00526); experiment: Percentage activity of human CDK3 (with cyclin E) in the presence of 10 uM of compound and 10 uM of ATP in comparison with control; assay type: protein-complex assay
[18] = target: RAC-gamma serine/threonine-protein kinase (Homo sapiens) (UniProt Q9Y243); experiment: Percentage activity of human PKB gamma in the presence of 10uM of compound and 10uM of ATP in comparison with control
RAC-gamma serine/threonine-protein kinase (Homo sapiens), sequence (Q9Y243 whole entry): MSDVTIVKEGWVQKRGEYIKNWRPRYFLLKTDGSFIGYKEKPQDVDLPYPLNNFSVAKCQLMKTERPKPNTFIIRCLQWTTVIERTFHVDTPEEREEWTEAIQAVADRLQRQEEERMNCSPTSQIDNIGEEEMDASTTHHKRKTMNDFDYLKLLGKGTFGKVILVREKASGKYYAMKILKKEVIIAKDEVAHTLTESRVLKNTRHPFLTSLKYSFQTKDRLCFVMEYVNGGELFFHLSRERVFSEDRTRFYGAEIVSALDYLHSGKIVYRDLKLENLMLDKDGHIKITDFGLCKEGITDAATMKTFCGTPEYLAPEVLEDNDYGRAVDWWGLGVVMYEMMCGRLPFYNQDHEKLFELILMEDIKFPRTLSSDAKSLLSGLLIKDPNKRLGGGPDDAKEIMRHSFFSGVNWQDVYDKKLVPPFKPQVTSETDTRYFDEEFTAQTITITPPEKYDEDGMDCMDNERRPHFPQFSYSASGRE

[19] = target: MAP kinase-activated protein kinase 5 (Homo sapiens) (UniProt Q8IW41); experiment: Percentage activity of human PRAK in the presence of 10 uM of compound and 10 uM of ATP in comparison with control
[20] = target: Cyclin-dependent kinase 1/cyclin B (Homo sapiens) (UniProt P06493+P14635+Q8WWL7+O95067); experiment: Percentage activity of human CDK1 (with cyclin B) in the presence of 10 uM of compound and 10 uM of ATP in comparison with control; assay type: protein-complex assay
[21] = target: Mitogen-activated protein kinase 8 (Homo sapiens) (UniProt P45983); experiment: Percentage activity of human JNK1a1 in the presence of 10 uM of compound and 10 uM of ATP in comparison with control
[22] = target: Serine/threonine-protein kinase Chk2 (Homo sapiens) (UniProt O96017); experiment: Percentage activity of human CHK2 in the presence of 10 uM of compound and 10 uM of ATP in comparison with control
[23] = target: Tyrosine-protein kinase CSK (Homo sapiens) (UniProt P41240); experiment: Percentage activity of human CSK in the presence of 10uM of compound and 10uM of ATP in comparison with control
[24] = target: Proto-oncogene tyrosine-protein kinase Src (Homo sapiens) (UniProt P12931); experiment: Percentage activity of human cSRC in the presence of 10 uM of compound and 10 uM of ATP in comparison with control
Proto-oncogene tyrosine-protein kinase Src (Homo sapiens), sequence (P12931 2-536 limits assumed): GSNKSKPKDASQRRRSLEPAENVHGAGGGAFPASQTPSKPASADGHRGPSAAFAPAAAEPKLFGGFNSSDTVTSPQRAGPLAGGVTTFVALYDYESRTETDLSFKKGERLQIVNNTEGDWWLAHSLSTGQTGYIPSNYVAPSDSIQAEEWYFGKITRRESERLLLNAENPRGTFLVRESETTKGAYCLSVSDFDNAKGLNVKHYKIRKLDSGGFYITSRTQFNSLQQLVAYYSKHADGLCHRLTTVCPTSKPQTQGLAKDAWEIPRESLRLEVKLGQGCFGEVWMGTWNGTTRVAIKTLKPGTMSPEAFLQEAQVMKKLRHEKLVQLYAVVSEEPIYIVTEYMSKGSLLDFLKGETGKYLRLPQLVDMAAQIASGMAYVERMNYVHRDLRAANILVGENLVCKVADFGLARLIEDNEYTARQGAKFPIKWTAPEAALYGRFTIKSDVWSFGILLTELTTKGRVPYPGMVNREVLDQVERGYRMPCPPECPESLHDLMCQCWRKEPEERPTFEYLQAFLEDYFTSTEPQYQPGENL

[25] = target: Protein kinase C beta type (Homo sapiens) (UniProt P05771); experiment: Percentage activity of human PKC betaII -His in the presence of 10 uM of compound and 10 uM of ATP in comparison with control
[26] = target: Casein kinase II (Homo sapiens) (UniProt P67870+P68400+P19784); experiment: Percentage activity of human CK2 in the presence of 10 uM of compound and 10 uM of ATP in comparison with control; assay type: protein-complex assay
[27] = target: Protein kinase C alpha type (Homo sapiens) (UniProt P17252); experiment: Percentage activity of human PKC alpha -His in the presence of 10 uM of compound and 10 uM of ATP in comparison with control
[28] = target: Dual specificity mitogen-activated protein kinase kinase 7 (Homo sapiens) (UniProt O14733); experiment: Percentage activity of human MKK7 beta in the presence of 10 uM of compound and 10 uM of ATP in comparison with control
[29] = target: Platelet-derived growth factor receptor beta (Homo sapiens) (UniProt P09619); experiment: Percentage activity of human PDGFR beta in the presence of 10 uM of compound and 10 uM of ATP in comparison with control
[30] = target: Mitogen-activated protein kinase 12 (Homo sapiens) (UniProt P53778); experiment: Percentage activity of human SAPK3 in the presence of 10 uM of compound and 10 uM of ATP in comparison with control

O=C(NCc1ccc(S(=O)(=O)N2CCC(n3nnc4ccccc43)CC2)s1)c1ccc(Cl)cc1
Activity [1]: 79% | Activity [2]: 106% | Activity [3]: 94% | Activity [4]: 113% | Activity [5]: 101% | Activity [6]: 79% | Activity [7]: 51% | Activity [8]: 92% | Activity [9]: 95% | Activity [10]: 89% | Activity [11]: 121% | Activity [12]: 99% | Rescued neurons [13]: inactive | Activity [14]: 93% | Activity [15]: 94% | Activity [16]: 96% | Activity [17]: 97% | Activity [18]: 76% | Activity [19]: 74% | Activity [20]: 102% | Activity [21]: 20% | Activity [22]: 75% | Activity [23]: 130% | Activity [24]: 67% | Activity [25]: 88% | Activity [26]: 99% | Activity [27]: 101% | Activity [28]: 121% | Activity [29]: 91% | Activity [30]: 106%

Source: ChEMBL document CHEMBL1137942, “Design, synthesis, and biological activity of novel, potent, and selective (benzoylaminomethyl)thiophene sulfonamide inhibitors of c-Jun-N-terminal kinase” (J Med Chem, 2004)
